Each structure is given as a SMILES string. pIC50: −log10 of the molar value.

For 15 compounds, IC50 results are on record in patent publication US20240025919A1, “AZA-TETRACYCLIC OXAZEPINE COMPOUNDS AND USES THEREOF” (Genentech, Inc., priority 2022, published 2024).

One assay has as its target KRAS WT (Homo sapiens (Human), UniProt P01116). In words: KRAS WT Biochemical Assay, BODIPY-GDP Exchange TR-FRET (Example 501; 3 nM KRAS WT, 3 nM SOS1, 60-minute incubation). The following applies: read-out: KRas HTRF IC50. The gist of the method: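 SOS1-mediated exchange assay: 3 nM biotin-KRAS WT with terbium-streptavidin, started with 3 nM SOS1 and 300 nM BODIPY-GDP, HEPES pH 7.5 with MgCl2. TR-FRET (520/490 nm) read after 60 min; normalized to DMSO and full-inhibition control, IC50 from 4-parameter Hill fit.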
Background: Time-resolved FRET reads energy transfer from a long-lived donor to a nearby acceptor.

In another assay the target is KRAS G12D (Homo sapiens (Human), UniProt P01116, G12D). In words: KRAS G12D LoEnz Biochemical Assay, BODIPY-GDP Exchange TR-FRET (SOS1-mediated nucleotide exchange). The following applies: read-out: KRas (G12D) GDP HTRF IC50.
Chain of KRAS G12D (P01116-2 other isoform, or with tags, fused parts or gaps G12D): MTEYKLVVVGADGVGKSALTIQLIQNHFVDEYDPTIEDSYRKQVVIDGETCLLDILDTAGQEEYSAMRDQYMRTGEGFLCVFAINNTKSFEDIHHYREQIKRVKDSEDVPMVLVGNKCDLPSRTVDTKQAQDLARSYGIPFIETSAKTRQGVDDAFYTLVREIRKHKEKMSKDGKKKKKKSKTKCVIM

Chain of KRAS WT (P01116-2 other isoform, or with tags, fused parts or gaps): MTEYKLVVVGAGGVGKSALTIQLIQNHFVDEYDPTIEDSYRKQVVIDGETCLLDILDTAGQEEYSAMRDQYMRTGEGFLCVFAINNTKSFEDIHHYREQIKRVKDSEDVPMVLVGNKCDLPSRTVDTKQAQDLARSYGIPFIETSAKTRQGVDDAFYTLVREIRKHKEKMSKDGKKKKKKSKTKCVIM

`Cc1nc(N)cc(-c2nc3c4c(nc(OCC5(CN6C[C@H]7C[C@@H]6CO7)CC5)nc4c2F)N2C[C@H]4CC[C@H](N4)[C@H]2[C@H](C)O3)c1C(F)(F)F` [Compound 209, 4-((5S,5aS,6S,9R)-12-((1-(((1R,4R)-2-Oxa-5-azabicyclo[2.2.1]heptan-5-yl)methyl)cyclopropyl)methoxy)-1-fluoro-5-methyl-5a,6,7,8,9,10-hexahydro-5H-4-oxa-3,10a,11,13,14-pentaaza-6,9-methanonaphtho[1,8-ab]heptalene-2-yl)-6-methyl-5-(trifluoromethyl)pyridin-2-amine]: the values for the pIC50 on KRAS WT and on KRAS G12D were 7.73 and 9.62, respectively.

In the case of `Cc1nc(N)cc(-c2nc3c4c(nc(OCC5(CN6CC7CCC6CO7)CC5)nc4c2F)N2C[C@H]4CC[C@H](N4)[C@H]2[C@H](C)O3)c1C(F)(F)F` [Compound 211, 4-((5S,5aS,6S,9R)-12-((1-((2-Oxa-5-azabicyclo[2.2.2]octan-5-yl)methyl)cyclopropyl)methoxy)-1-fluoro-5-methyl-5°,6,7,8,9,10-hexahydro-5H-4-oxa-3,10°,11,13,14-pentaaza-6,9-methanonaphtho[1,8-ab]heptalen-2-yl)-6-methyl-5-(trifluoromethyl)pyridin-2-amine], the values for the pIC50 on KRAS WT and on KRAS G12D were 7.75 and 9.68, respectively.

As to `Cc1nc(N)cc(-c2nc3c4c(nc(OCC5(CN6CCOC7(CC7)C6)CC5)nc4c2F)N2C[C@H]4CC[C@H](N4)[C@H]2[C@H](C)O3)c1C(F)(F)F` [Compound 212, 4-((5S,5aS,6S,9R)-12-((1-((4-Oxa-7-azaspiro[2.5]octan-7-yl)methyl)cyclopropyl)methoxy)-1-fluoro-5-methyl-5a,6,7,8,9,10-hexahydro-5H-4-oxa-3,10a,11,13,14-pentaaza[6,9]methanonaphtho[1,8-ab]heptalene-2-yl)-6-methyl-5-(trifluoromethyl)pyridin-2-amine], the pIC50 (in general, −log10 of the IC50, conventionally taken in molar units) at KRAS WT was 7.41; on KRAS G12D, 9.25.

In the case of `Cc1nc(N)cc(-c2nc3c4c(nc(OCC5(CN6CCO[C@H](C)C6)CC5)nc4c2F)N2C[C@H]4CC[C@H](N4)[C@H]2[C@H](C)O3)c1C(F)(F)F` [Compound 213, 4-((5S,5aS,6S,9R)-1-Fluoro-5-methyl-12-((1-(((R)-2-methylmorpholino)methyl)cyclopropyl)methoxy)-5a,6,7,8,9,10-hexahydro-5H-4-oxa-3,10a,11,13,14-pentaaza-6,9-methanonaphtho[1,8-ab]heptalen-2-yl)-6-methyl-5-(trifluoromethyl)pyridin-2-amine], the values for the pIC50 at KRAS WT and at KRAS G12D were 7.87 and 9.51, respectively.

For the compound `Cc1nc(N)cc(-c2nc3c4c(nc(OCC56CCN5CC(F)(F)C6)nc4c2F)N2C[C@H]4CC[C@H](N4)[C@H]2[C@H](C)O3)c1C(F)(F)F` (stereo partly drawn) [Compound 214, 4-((5S,5aS,6S,9R)-12-((3,3-Difluoro-1-azabicyclo[3.2.0]heptan-5-yl)methoxy)-1-fluoro-5-methyl-5°,6,7,8,9,10-hexahydro-5H-4-oxa-3,10°,11,13,14-pentaaza-6,9-methanonaptho[1,8-ab]heptalen-2-yl)-6-methyl-5-(trifluoromethyl)pyridin-2-amine], the pIC50 at KRAS WT was 7.25; at KRAS G12D it was 9.38.

For `Cc1nc(N)cc(-c2nc3c4c(nc(OC[C@@]56CCCN5C[C@H](F)C6)nc4c2F)N2C[C@H]4CC[C@H](N4)[C@H]2[C@H](C)O3)c1C(F)(F)F` [Compound 215, 4-((5S,5aS,6S,9R)-1-Fluoro-12-(((2R,7aS)-2-fluorotetrahydro-1H-pyrrolizin-7°(5H)-yl)methoxy)-5-methyl-5°,6,7,8,9,10-hexahydro-5H-4-oxa-3,10°,11,13,14-pentaaza-6,9-methanonaphtho[1,8-ab]heptalen-2-yl)-6-methyl-5-(trifluoromethyl)pyridin-2-amine], the values for the pIC50 at KRAS WT and on KRAS G12D were 8.15 and 9.68, respectively.

On to `Cc1nc(N)cc(-c2nc3c4c(nc(OC[C@]56CCCN5CC(F)(F)C6)nc4c2F)N2C[C@H]4CC[C@H](N4)[C@H]2[C@H](C)O3)c1C(F)(F)F` [Compound 217, 4-((5S,5aS,6S,9R)-12-(((R)-2,2-difluorotetrahydro-1H-pyrrolizin-7a(5H)-yl)methoxy)-1-fluoro-5-methyl-5a,6,7,8,9,10-hexahydro-5H-4-oxa-3,10a,11,13,14-pentaaza-6,9-methanonaphtho[1,8-ab]heptalen-2-yl)-6-methyl-5-(trifluoromethyl)pyridin-2-amine], for which the pIC50 on KRAS WT is 6.62; at KRAS G12D it was 8.47.

Regarding `Cc1nc(N)cc(-c2nc3c4c(nc(OCC5(CN6C[C@@H](C)O[C@@H](C)C6)CC5)nc4c2F)N2C[C@H]4CC[C@H](N4)[C@H]2[C@H](C)O3)c1C(F)(F)F` [Compound 218, 4-((5S,5aS,6S,9R)-12-((1-(((2R,6S)-2,6-Dimethylmorpholino)methyl)cyclopropyl)methoxy)-1-fluoro-5-methyl-5a,6,7,8,9,10-hexahydro-5H-4-oxa-3,10a,11,13,14-pentaaza-6,9-methanonaphtho[1,8-ab]heptalen-2-yl)-6-methyl-5-(trifluoromethyl)pyridin-2-amine], the pIC50 at KRAS WT was 7.85; at KRAS G12D it was 9.54.

Take `Cc1nc(N)c(F)c(-c2nc3c4c(nc(OCC5(CN6CCOCC6)CC5)nc4c2F)N2C[C@H]4CC[C@H](N4)[C@H]2[C@H](C)O3)c1C(F)(F)F` [Compound 219, 3-Fluoro-4-((5S,5aS,6S,9R)-1-fluoro-5-methyl-12-((1-(morpholinomethyl)cyclopropyl)methoxy)-5a,6,7,8,9,10-hexahydro-5H-4-oxa-3,10a,11,13,14-pentaaza-6,9-methanonaphtho[1,8-ab]heptalen-2-yl)-6-methyl-5-(trifluoromethyl)pyridin-2-amine]: the pIC50 is 7.33 at KRAS WT and 9.34 on KRAS G12D.

As for `Cc1nc(N)c(F)c(-c2nc3c4c(nc(OCC56CCN5CC(F)(F)C6)nc4c2F)N2C[C@H]4CC[C@H](N4)[C@H]2[C@H](C)O3)c1C(F)(F)F` (stereo partly drawn) [Compound 220, 4-((5S,5aS,6S,9R)-12-((3,3-Difluoro-1-azabicyclo[3.2.0]heptan-5-yl)methoxy)-1-fluoro-5-methyl-5a,6,7,8,9,10-hexahydro-5H-4-oxa-3,10a,11,13,14-pentaaza-6,9-methanonaphtho[1,8-ab]heptalene-2-yl)-3-fluoro-6-methyl-5-(trifluoromethyl)pyridin-2-amine], the negative logarithm of the IC50 (pIC50) on KRAS WT is 6.83; on KRAS G12D it was 9.04.

As for `Cc1nc(N)c(F)c(-c2nc3c4c(nc(OCC5(CN6C[C@@H]7C[C@H]6CO7)CC5)nc4c2F)N2C[C@H]4CC[C@H](N4)[C@H]2[C@H](C)O3)c1C(F)(F)F` [Compound 222, 4-((5S,5aS,6S,9R)-12-((1-(((1S,4S)-2-Oxa-5-azabicyclo[2.2.1]heptan-5-yl)methyl)cyclopropyl)methoxy)-1-fluoro-5-methyl-5a,6,7,8,9,10-hexahydro-5H-4-oxa-3,10a,11,13,14-pentaaza-6,9-methanonaphtho[1,8-ab]heptalene-2-yl)-3-fluoro-6-methyl-5-(trifluoromethyl)pyridin-2-amine], the figures for the pIC50 on KRAS WT and on KRAS G12D were 7.34 and 8.47, respectively.

As to `Cc1nc(N)c(F)c(-c2nc3c4c(nc(OCC5(CN6C[C@H]7C[C@@H]6CO7)CC5)nc4c2F)N2C[C@H]4CC[C@H](N4)[C@H]2[C@H](C)O3)c1C(F)(F)F` [Compound 223, 4-((5S,5aS,6S,9R)-12-((1-(((1R,4R)-2-Oxa-5-azabicyclo[2.2.1]heptan-5-yl)methyl)cyclopropyl)methoxy)-1-fluoro-5-methyl-5a,6,7,8,9,10-hexahydro-5H-4-oxa-3,10a,11,13,14-pentaaza-6,9-methanonaphtho[1,8-ab]heptalene-2-yl)-3-fluoro-6-methyl-5-(trifluoromethyl)pyridin-2-amine], the pIC50 on KRAS WT was 7.29; at KRAS G12D, 8.47.

On to `Cc1c(F)c(N)c(F)c(-c2nc3c4c(nc(OCC5(CN6CCOCC6)CC5)nc4c2F)N2C[C@H]4CC[C@H](N4)[C@H]2[C@H](C)O3)c1C(F)(F)F` [Compound 224, 2,6-Difluoro-3-((5S,5aS,6S,9R)-1-fluoro-5-methyl-12-((1-(morpholinomethyl)cyclopropyl)methoxy)-5a,6,7,8,9,10-hexahydro-5H-4-oxa-3,10a,11,13,14-pentaaza-6,9-methanonaphtho[1,8-ab]heptalen-2-yl)-5-methyl-4-(trifluoromethyl)aniline], for which the pIC50 was 7.92 at KRAS WT and 9.74 at KRAS G12D.

In the case of `Cc1c(F)c(N)c(F)c(-c2nc3c4c(nc(OC[C@@]56CCCN5CC5(CC5(F)F)C6)nc4c2F)N2C[C@H]4CC[C@H](N4)[C@H]2[C@H](C)O3)c1C(F)(F)F` (stereo partly drawn) [Compound 225, 3-((5S,5aS,6S,9R)-12-(((7a′S)-2,2-Difluorodihydro-1′H,3′H-spiro[cyclopropane-1,2′-pyrrolizin]-7a′(5′H)-yl)methoxy)-1-fluoro-5-methyl-5a,6,7,8,9,10-hexahydro-5H-4-oxa-3,10a,11,13,14-pentaaza[6,9]methanonaphtho[1,8-ab]heptalene-2-yl)-2,6-difluoro-5-methyl-4-(trifluoromethyl)aniline], the pIC50 was 8.38 at KRAS WT and 9.60 on KRAS G12D.

As for `Cc1cc(N)c(F)c(-c2nc3c4c(nc(OCC5(CN6CCOCC6)CC5)nc4c2F)N2C[C@H]4CC[C@H](N4)[C@H]2[C@H](C)O3)c1C(F)(F)F` [Compound 226, 2-Fluoro-3-((5S,5aS,6S,9R)-1-fluoro-5-methyl-12-((1-(morpholinomethyl)cyclopropyl)methoxy)-5a,6,7,8,9,10-hexahydro-5H-4-oxa-3,10a,11,13,14-pentaaza-6,9-methanonaphtho[1,8-ab]heptalene-2-yl)-5-methyl-4-(trifluoromethyl)aniline], the results for the pIC50 at KRAS WT and at KRAS G12D were 8.09 and 9.40, respectively.
